# According to patent publication US9849135B2, “USP14 inhibitors for treating or preventing viral infections” (priority 2013, dated 2017):
# Where two headings read alike, the source gives them in different places.
# Assays:
# [1] = test system: DENV2 (New Guinea C strain); type: cell-based, Dengue virus; settings: 100 μM IU1; preincubated cells
# [2] = test system: DENV2; type: cell-based, Dengue virus
# [3] = test system: WNV (WNO2-1956); type: cell-based, West Nile virus
# [4] = test system: yellow fever virus (YFV, 17D vaccine strain); type: cell-based
# [5] = test system: LACV (LAC74-32813); type: cell-based, La Crosse virus
# [6] = test system: CHIKV (LR2006-OPY1); type: cell-based, Chikungunya virus
smiles,measurement,setting,value
"Cc1cc(C(=O)CN2CCCC2)c(C)n1-c1ccc(F)cc1 [IU1, 1-(1-(4-fluorophenyl)-2,5-dimethyl-1H-pyrrol-3-yl)-2-(pyrrolidin-1-yl)ethanone]",plaques in plaque assay,[1],No plaques were observed
same,"titer, % of maximum","[2]; 75 μM IU1, post-infection addition",37%
same,"titer, % of maximum","[2]; 100 μM IU1, post-infection addition",0.5%
same,WNV titer reduction,[3],3-5 fold
same,WNV titer versus without the drug,[3],significantly higher
same,plaques in plaque assay (WNV),[3],no plaques were observed
same,YFV titer reduction,[4],3-5 fold
same,LACV replication reduction,[5],3 fold
same,effect on CHIKV replication,[6],negligible or non-existent
